PubChem BioAssay (NCI)
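Dose response: 5 concentrations. Exposure: 48 h. Format: 96-well plates. Endpoint: linear interpolation; highest concentration if not reached. GI50 = concentration required for 50% inhibition of growth. The concentration for full growth arrest is given as TGI.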

How the values were obtained:
Test in all cases: NCI anticancer screen, dose series, 48 h
[1] = system: 786-0 renal
[2] = system: A498 renal
[3] = system: A549 NSCLC
[4] = system: ACHN renal
[5] = system: BT-549 breast
[6] = system: CAKI-1 renal
[7] = system: CCRF-CEM leukemia
[8] = system: COLO 205 colon
[9] = system: DU-145 prostate
[10] = system: EKVX NSCLC
[11] = system: HCC-2998 colon
[12] = system: HCT-116 colon
[13] = system: HCT-15 colon
[14] = system: HL-60(TB) leukemia
[15] = system: HOP-62 NSCLC
[16] = system: HOP-92 NSCLC
[17] = system: HS 578T breast
[18] = system: HT29 colon
[19] = system: IGROV1 ovarian
[20] = system: K-562 leukemia
[21] = system: KM12 colon
[22] = system: LOX IMVI melanoma
[23] = system: M14 melanoma
[24] = system: MALME-3M melanoma
[25] = system: MCF7 breast
[26] = system: MDA-MB-231 breast
[27] = system: MDA-MB-435
[28] = system: MDA-MB-468 breast
[29] = system: MOLT-4 leukemia
[30] = system: NCI-H226 lung
[31] = system: NCI-H23 lung
[32] = system: NCI-H460 lung
[33] = system: NCI-H522 lung
[34] = system: NCI/ADR-RES ovarian
[35] = system: OVCAR-3 ovarian
[36] = system: OVCAR-4 ovarian
[37] = system: OVCAR-5 ovarian
[38] = system: OVCAR-8 ovarian
[39] = system: PC-3 prostate
[40] = system: RPMI-8226 leukemia
[41] = system: RXF 393 renal
[42] = system: SF-268 CNS
[43] = system: SF-295 CNS
[44] = system: SF-539 CNS
[45] = system: SK-MEL-2 melanoma
[46] = system: SK-MEL-28 melanoma
[47] = system: SK-MEL-5 melanoma
[48] = system: SK-OV-3 ovarian
[49] = system: SN12C renal
[50] = system: SNB-19 CNS
[51] = system: SNB-75 CNS
[52] = system: SR leukemia
[53] = system: SW-620 colon
[54] = system: T-47D breast
[55] = system: TK-10 renal
[56] = system: U251 CNS
[57] = system: UACC-257 melanoma
[58] = system: UACC-62 melanoma
[59] = system: UO-31 renal

In the case of `O=C(CSc1nnc(-c2ccc(-c3nc4ccccc4[nH]3)cc2)o1)Nc1ccc(Br)cc1`, the GI50 [1] is reported as 2.17 µM, the TGI [1] is reported as 4.29 µM and the GI50 [2] is reported as 19 µM. For the same molecule, the TGI [2] was 35.3 µM, the GI50 [3] was 2.4 µM and the TGI [3] was 6.24 µM. The GI50 [4] was 3.55 µM, the TGI [4] was 12.8 µM and the GI50 [5] was 3.03 µM. For the same molecule, the TGI [5] was 7.93 µM, the GI50 [6] was 2.03 µM and the TGI [6] was 4.83 µM. The GI50 [7] was 3.41 µM, the TGI [7] was 15.8 µM and the GI50 [8] was 10.6 µM. The TGI [8] was 30.5 µM, the GI50 [9] was 3.2 µM and the TGI [9] was 10.8 µM. For the same molecule, the GI50 [10] was 4.2 µM, the TGI [10] was 16.3 µM and the GI50 [11] was 12.9 µM. For the same molecule, the TGI [11] was 31.2 µM, the GI50 [12] was 3.43 µM and the TGI [12] was 13.7 µM. It also gave a GI50 [13] of 3.66 µM, a TGI [13] of 15.1 µM and a GI50 [14] of 6.37 µM. For the same molecule, the TGI [14] was 33.1 µM, the GI50 [15] was 2.88 µM and the TGI [15] was 8.21 µM. For the same molecule, the GI50 [16] was 3.24 µM, the TGI [16] was 11.5 µM and the GI50 [17] was 3.39 µM. The TGI [17] was 16.3 µM, the GI50 [18] was 2.87 µM and the TGI [18] was 12.8 µM. For the same molecule, the GI50 [19] was 10.3 µM, the TGI [19] was 22.6 µM and the GI50 [20] was 3.01 µM. The TGI [20] was over 100 µM, the GI50 [21] was 3.98 µM and the TGI [21] was 18.6 µM. The GI50 [22] was 1.73 µM, the TGI [22] was 3.48 µM and the GI50 [23] was 3.82 µM. It also gave a TGI [23] of 17.8 µM, a GI50 [24] of 2.37 µM and a TGI [24] of 6.33 µM. It also gave a GI50 [25] of 2.88 µM, a TGI [25] of 12.5 µM and a GI50 [26] of 4.38 µM. It also gave a TGI [26] of 15.1 µM, a GI50 [27] of 2.11 µM and a TGI [27] of 7.73 µM. For the same molecule, the GI50 [28] was 6.47 µM, the TGI [28] was 20.7 µM and the GI50 [29] was 3.26 µM. The TGI [29] was 18 µM, the GI50 [30] was 2.63 µM and the TGI [30] was 9.59 µM. For the same molecule, the GI50 [31] was 3.22 µM, the TGI [31] was 12.4 µM and the GI50 [32] was 1.95 µM. It also gave a TGI [32] of 4.54 µM, a GI50 [33] of 2.74 µM and a TGI [33] of 14.6 µM. The GI50 [34] was 5.14 µM, the TGI [34] was 19.1 µM and the GI50 [35] was 2.74 µM. The TGI [35] was 8.95 µM, the GI50 [36] was 3.23 µM and the TGI [36] was 12.3 µM. It also gave a GI50 [37] of 6.53 µM, a TGI [37] of 20.4 µM and a GI50 [38] of 4.11 µM. It also gave a TGI [38] of 15.6 µM, a GI50 [39] of 2.57 µM and a TGI [39] of 8.99 µM. The GI50 [40] was 3.24 µM, the TGI [40] was 36.1 µM and the GI50 [41] was 2.26 µM. The TGI [41] was 5.82 µM, the GI50 [42] was 2.44 µM and the TGI [42] was 6.61 µM. For the same molecule, the GI50 [43] was 2.31 µM, the TGI [43] was 5.97 µM and the GI50 [44] was 2 µM. For the same molecule, the TGI [44] was 4.7 µM, the GI50 [45] was 12.2 µM and the TGI [45] was 26.4 µM. It also gave a GI50 [46] of 2.62 µM, a TGI [46] of 7.91 µM and a GI50 [47] of 4.8 µM. It also gave a TGI [47] of 17.3 µM, a GI50 [48] of 12.1 µM and a TGI [48] of 34.9 µM. The GI50 [49] was 3.4 µM, the TGI [49] was 12.7 µM and the GI50 [50] was 5.36 µM. It also gave a TGI [50] of 18 µM, a GI50 [51] of 2 µM and a TGI [51] of 7.51 µM. The GI50 [52] was 4.57 µM, the TGI [52] was 40.1 µM and the GI50 [53] was 3.1 µM. It also gave a TGI [53] of 11.6 µM, a GI50 [54] of 3.81 µM and a TGI [54] of 20.2 µM. It also gave a GI50 [55] of 14.8 µM, a TGI [55] of 29.6 µM and a GI50 [56] of 6.78 µM. The TGI [56] was 20.3 µM, the GI50 [57] was 4.76 µM and the TGI [57] was 20.5 µM. It also gave a GI50 [58] of 4.13 µM, a TGI [58] of 15.5 µM and a GI50 [59] of 5.91 µM. For the same molecule, the TGI [59] was 18.9 µM.
